The results in this text go back to ChEMBL document CHEMBL1157726, “Synthesis, characterization and antiglaucoma activity of a novel proton transfer compound and a mixed-ligand Zn(II) complex” (Bioorg Med Chem, 2010).

Test [1] concerns the target T1, Carbonic anhydrase 1 (Homo sapiens, UniProt P00915). In words: Inhibition of CA1 from human erythrocytes by Lineweaver-Burke analysis.
Test [2] has as its target T2, Carbonic anhydrase 2 (Homo sapiens, UniProt P00918). In words: Inhibition of esterase-activity of human erythrocytes CA2 by spectrophotometry.
Test [3] concerns the target T2, Carbonic anhydrase 2. As to the kind of experiment: Inhibition of hydratase-activity of human erythrocytes CA2 by CO2-hydration method.
Test [4] deals with T1, Carbonic anhydrase 1. In words: Inhibition of esterase-activity of CA1 from human erythrocytes by spectrophotometry.
In test [5] the target is T2, Carbonic anhydrase 2. As to the kind of experiment: Inhibition of human erythrocytes CA2 by Lineweaver-Burke analysis.
In test [6] the target is T1, Carbonic anhydrase 1. As to the kind of experiment: Inhibition of hydratase-activity of CA1 from human erythrocytes by CO2-hydration method.

T1 sequence (P00915 whole entry): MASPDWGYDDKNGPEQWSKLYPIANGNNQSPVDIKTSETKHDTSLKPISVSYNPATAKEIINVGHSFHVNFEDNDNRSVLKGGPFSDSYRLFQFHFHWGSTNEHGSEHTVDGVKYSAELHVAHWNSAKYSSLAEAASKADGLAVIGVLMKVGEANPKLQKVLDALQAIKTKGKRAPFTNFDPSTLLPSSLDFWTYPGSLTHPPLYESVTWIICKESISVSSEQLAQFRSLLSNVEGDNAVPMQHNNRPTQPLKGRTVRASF

For `NS(=O)(=O)c1cc(C(=O)O)c(Cl)cc1Cl`, the concentration for half-maximal inhibition (IC50) was 7.7 µM at Carbonic anhydrase 1 [1] (read-out: IC50); 18 µM at Carbonic anhydrase 2 [2] (read-out: IC50); 380 nM at Carbonic anhydrase 2 [3] (read-out: IC50); 3200 nM on Carbonic anhydrase 1 [4] (read-out: IC50); 22 µM on Carbonic anhydrase 2 [5] (read-out: IC50); 430 nM at Carbonic anhydrase 1 [6] (read-out: IC50).

With `NCc1ccccn1`, the IC50 entry at Carbonic anhydrase 1 [1], at Carbonic anhydrase 2 [2], at Carbonic anhydrase 2 [3], at Carbonic anhydrase 1 [4], on Carbonic anhydrase 2 [5] and against Carbonic anhydrase 1 [6] was “Not Active” throughout.

Turning to `NCc1ccccn1.NS(=O)(=O)c1cc(C(=O)O)c(Cl)cc1Cl`, the IC50 at Carbonic anhydrase 1 [1] (read-out: IC50) worked out at 0.25 µM; at Carbonic anhydrase 2 [2] (read-out: IC50) it was 0.29 µM; at Carbonic anhydrase 2 [3] (read-out: IC50) it was 300 nM; on Carbonic anhydrase 1 [4] (read-out: IC50) it was 320 nM; on Carbonic anhydrase 2 [5] (read-out: IC50), 0.22 µM; at Carbonic anhydrase 1 [6] (read-out: IC50) it was 260 nM.

One may read the IC50 as the concentration at which inhibition is half-maximal.
